Values after ≈ are worked out from the molar mass of the structure shown. Read-outs that look alike come from different tables or passages of the source.
Key:
[1] = system: Staphyloccocus aureus (ATCC 6538); experiment: Minimum inhibitory concentration, broth dilution (NCCLS M7-A6), S. aureus; format: cell-based, Staphylococcus aureus; conditions: for MIC: ATCC 6538, 100% inhibition of growth, visual, 24 h at 37 °C; for d SI (selective index): ratio between MIC in murine macrophages and MIC in Staphylococcus aereus: as printed in footnote d
Procedure: (§1) Antimicrobial activity tests were performed in a quantitative way by determining the minimum inhibitory concentration (MIC) by the standard method for in vitro anti-bacterial susceptibility testing proposed by the National Committee for Clinical Laboratory Standards [NCCLS M7-A6] [56]. Sthaphyloccocus aureus [ATCC6538] and Pseudomonas aeruginosa [ATCC27853] stored in Müller–Hilton broth were sub-cultured for testing in the same medium and incubated for 24 h, respectively, at 37 °C. The bacterial cells of the two strains were suspended in Müller-Hilton broth to produce inocula of 10^8 CFU mL^–1, determined by a spectrophotometric method. Serial dilutions of the compounds, previously dissolved in DMSO, were prepared in 10 test tubes with Müller–Hilton broth to final concentrations from 100 μg mL^–1 to 0.20 μg mL^–1 for P. aeruginosa and S. aureus. An old inoculum of each strain was added to the tubes to obtain final concentrations of 10^5 CFU. […] Tests using tetracycline as positive control and DMSO as negative control were carried out in parallel. All tests were performed in triplicate with full agreement between the results.

[2] = system: Pseudomonas aeruginosa (ATCC 27853); experiment: Minimum inhibitory concentration, broth dilution (NCCLS M7-A6), P. aeruginosa; format: cell-based; conditions: visual, 24 h at 37 °C
Procedure: as §1

[3] = system: L. amazonensis promastigotes; experiment: Antileishmanial activity assay (growth inhibition, absorbance at 600 nm) against L. amazonensis promastigotes; format: cell-based, Leishmania amazonensis (strain MHOM/BR/1989/BA199); conditions: for IC50: promastigotes, IC50/72 h (source says 48 h), non-linear regression, read-out: IC50 (μM) ± SEM, L. amazonensis strain
Procedure: (§2) The four complexes, their metal salts and their respective free ligands were primarily tested for their activity to investigate whether they inhibit the growth of L. amazonensis and L. infantum promastigotes. The growth rate of the promastigotes incubated for […] in the presence of test compounds was compared to those of nontreated negative control and to those treated with the standard antileishmanial antimony(III) drug tartar emetic.
(§3) Leishmania amazonensis (strain MHOM/BR/1989/BA199) and Leishmania infantum (strain MCAN/BR/2002/BH400) promastigotes were maintained in minimum essential culture medium (α-MEM) (Gibco, Invitrogen, Grand Island, NY, USA) supplemented with 10% (v/v) heat inactivated fetal calf serum (Cultilab, Campinas, SP, Brazil), […] kanamycin, […] ampicillin, 2 mM L-glutamine, […] hemin, 5 mM biopterin, (Sigma-Aldrich), pH 7.0 and incubated at 25 °C [52].
(§4) Complexes 1-4 were evaluated in vitro for their activity against two wild type Leishmania parasites. Log-phase L. amazonensis and L. infantum promastigotes (1 × 10^6 parasites/mL) were seeded in 24-wells cell culture plates with 1.5 mL of α-MEM, incubated under shaking at 25 °C during 72 h in the presence of several concentrations of complex 1–4, free ligands HL1-2, and metal precursors M1-2. Non-treated parasites in the presence of DMSO solution and absence of any test compound were established for growth comparison. Stock solutions of the ligands, 2-acetylsalicylic acid and 3-acetoxybenzoic acid, their metal complexes 1–4, and metal salts, Ph3SbCl2 and Ph3BiCO3 were dissolved in DMSO and diluted in α-MEM cell culture medium to obtain the range of tested concentrations. […] For drug susceptibility assay, Leishmania growth curves were constructed by measuring absorbance at 600 nm. The antileishmanial activity is expressed as IC50/72 h, which is the concentration that reduces cell growth by 50% compared to untreated control (relative growth). All experiments were done at least three times as independent experiments performed in triplicate.
(§5) The IC50 and CC50 values were calculated by nonlinear regression using the software GraphPad Prism 5.0. The acceptable level of significance was 95% (p < 0.05).

[4] = system: mouse peritoneal macrophages; experiment: Cytotoxicity (MTT assay) against mouse peritoneal macrophages; format: cell-based, mouse (Balb/c); conditions: 24 h, murine peritoneal macrophages, read-out: CC50: concentration that is cytotoxic against 50% of macrophages
Procedure: (§6) The in vitro cytotoxicity of the complexes, along their metal salts and ligands, was evaluated by means of the MTT assays towards mouse peritoneal macrophages. The results of in vitro cytotoxic activity are expressed as CC50, which is the concentration of compound that inhibits the viability of macrophages by 50% as compared to untreated macrophages control.
(§7) The concentration of studied compounds that is cytotoxic to 50% of the macrophages (CC50) was determined by the 3-(4,5-dimethylthiazol-2-yl)-2,5 diphenyltetrazolium bromide (MTT) method according to Mosmann. Briefly, peritoneal macrophages were obtained from Balb/c mice after intraperitoneal injection of 2 mL of 3% sodium thioglycolate medium. Mice were euthanized after 72 h, just before removal of peritoneal macrophages by washing with cold RPMI 1640 medium. The procedure was approved by the Internal Ethics Committee in Animal Experimentation (CEUA) of the Federal University of Uberlândia (Protocol 069/2013). After washing, the cell suspension (4.0 × 10^6/mL) was seeded (0.1 mL) in 96-well flat bottom plates. Macrophages were allowed to adhere for 2 h and non-adherent cells were removed by washing with RPMI. Then, the compounds were added to the wells at different concentrations and the cells were further cultured in RPMI-1640 supplemented with 10% FBS for 24 h at 37 °C in a humidified 5% CO2 atmosphere. Thereafter, the medium was replaced with fresh RPMI containing 0.5 mg/mL of MTT and the plates were incubated for additional 4 h. Supernatants were aspirated and the formazan crystals formed were dissolved in 100 μL of DMSO. After 15 min of incubation at room temperature, absorbance of solubilized MTT formazan product was spectrophotometrically measured at 570 nm.
as §5

[5] = system: L. infantum promastigotes; experiment: Antileishmanial activity assay (growth inhibition, absorbance at 600 nm) against L. infantum promastigotes; format: cell-based, Leishmania infantum (strain MCAN/BR/2002/BH400); conditions: for IC50: promastigotes, IC50/72 h (source says 48 h), non-linear regression, read-out: IC50 (μM) ± SEM, L. infantum strain
Procedure: as §2, §3, §4, §5

[6] = system: L. infantum promastigotes; experiment: as above; format: cell-based, Leishmania infantum (strain MCAN/BR/2002/BH400); conditions: Leishmania infantum, IC50/72 h (source says 48 h), non-linear regression, read-out: IC50 (μM) ± SEM, L. infantum strain
[7] = system: Pseudomonas aeruginosa (ATCC 27853); experiment: Minimum inhibitory concentration, broth dilution (NCCLS M7-A6), P. aeruginosa; format: cell-based; conditions: as printed in footnote c
[8] = Antileishmanial activity assay (growth inhibition, absorbance at 600 nm) against L. amazonensis promastigotes; format: cell-based, Leishmania amazonensis (strain MHOM/BR/1989/BA199); conditions: Balb/c, mouse (macrophages); Leishmania amazonensis (promastigotes), pH 7; CC50 macrophages / IC50 L. amazonensis; read-out: b SI (selective index): ratio between CC50 in murine macrophages and IC50 in L. amazonensis (WT)
Procedure: as §2, §3, §4, §5

[9] = Cytotoxicity (MTT assay) against mouse peritoneal macrophages; format: cell-based, mouse (Balb/c); conditions: Balb/c, mouse, mouse peritoneal macrophages, murine peritoneal macrophages, read-out: CC50: concentration that is cytotoxic against 50% of macrophages
Procedure: as §6, §7, §5

[10] = Antileishmanial activity assay (growth inhibition, absorbance at 600 nm) against L. infantum promastigotes; format: cell-based, Leishmania infantum (strain MCAN/BR/2002/BH400); conditions: Balb/c, mouse (macrophages); Leishmania infantum (promastigotes), pH 7; CC50 macrophages / IC50 L. infantum; read-out: a SI (selective index): ratio between CC50 in murine macrophages and IC50 in L. infantum
Procedure: as §2, §3, §4, §5

[11] = system: L. amazonensis promastigotes; design: method as in PMID 23099618; conditions: read-out: IC50 (μM) ± SEM, L. amazonensis strain; cited from earlier work
[12] = system: Pseudomonas aeruginosa (ATCC 27853); design: method as in doi:10.1016/j.molstruc.2010.11.048; conditions: cited from earlier work
Leishmania promastigotes = system: Leishmania promastigotes; design: method as in PMID 19633606; conditions: cited from earlier work
[13] = Staphylococcus aureus, ATCC6538
[14] = Pseudomonas aeruginosa, ATCC27853, 100% inhibition of growth

| Compound | MIC [1] [µM] | MIC ([2]; 100% inhibition of growth) [µM] | b SI (selective index): ratio between CC50 in murine macrophages and IC50 in L. amazonensis (WT) [3] | IC50 [3] [µM] | CC50 [4] [µM] | a SI (selective index): ratio between CC50 in murine macrophages and IC50 in L. infantum [5] | IC50 [5] [µM] | other results |
| --- | --- | --- | --- | --- | --- | --- | --- | --- |
| CC(=O)Oc1ccccc1C(=O)[O][Sb]([O]C(=O)c1ccccc1OC(C)=O)([c]1ccccc1)([c]1ccccc1)[c]1ccccc1 [Complex 1, Bis-(acetylsalicylato)triphenylantimony(V)] | 140.6 | 140.6 | 2.0 | 30.7 ± 3.43 | 60.5 ± 3.4 | 4.51 | 13.3 ± 0.74 | – |
| CC(=O)Oc1ccccc1C(=O)[O][Bi]([O]C(=O)c1ccccc1OC(C)=O)([c]1ccccc1)([c]1ccccc1)[c]1ccccc1 [Complex 3, Bis-(acetylsalicylato)triphenylbismuth(V)] | 4.1 | 8.2 | 0.75 | 8.5 ± 0.56 | 6.4 ± 0.5 | 0.74 | 8.6 ± 1.36 | – |
| CC(=O)Oc1cccc(C(=O)[O][Bi]([O]C(=O)c2cccc(OC(C)=O)c2)([c]2ccccc2)([c]2ccccc2)[c]2ccccc2)c1 [Complex 4, Bis-(3-acetoxybenzoato)triphenylbismuth(V)] | 4.1 | 16.5 | <1 | 2.9 ± 0.17 | 2 ± 0.1 | <1 | 4 ± 0.39 | – |
| [Cl][Sb]([Cl])([c]1ccccc1)([c]1ccccc1)[c]1ccccc1 [Complex M1, triphenylantimony(V) dichloride] | 235.8 | 235.8 | 2.4 | 9.3 ± 0.26 | 22.7 ± 0.93 | 1.7 | 13.2 ± 2.03 | – |
| O=C([O-])[O-].c1cc[c]([Bi+2]([c]2ccccc2)[c]2ccccc2)cc1 [Complex M2, triphenylbismuth carbonate] | 24.5 | 48.9 | 4.6 | 2.7 ± 0.34 | 12.1 ± 0.45 | 10.6 | 1.1 ± 0.37 | – |
| CC(=O)Oc1ccccc1C(=O)O [HL1, acetylsalicylic acid] | – | – | – | – | – | – | – | IC50 [6]: 8990 µM; MIC [1, 13]: > 555 µM; d SI (selective index): ratio between MIC in murine macrophages and MIC in Staphylococcus aereus [1]: <1; c SI (selective index): ratio between CC50 in murine macrophages and MIC in Pseudomonas aureginosa [7]: <1; MIC [2, 14]: > 555 µM; selectivity ratio at 72 h [8]: < 1; CC50 at 24 h [9]: 580.1 ± 1.07 µM; selectivity ratio at 72 h [10]: < 1 |
| CC(=O)Oc1cccc(C(=O)O)c1 [HL2, 3-acetoxybenzoic acid] | – | – | – | – | – | – | – | MIC [1, 13]: > 555 µM; d SI (selective index): ratio between MIC in murine macrophages and MIC in Staphylococcus aereus [1]: <1; c SI (selective index): ratio between CC50 in murine macrophages and MIC in Pseudomonas aureginosa [7]: <1; MIC [2, 14]: > 555 µM; selectivity ratio at 72 h [8]: < 1; CC50 at 24 h [9]: 2768 ± 9 µM; selectivity ratio at 72 h [10]: < 1 |
| O=C([O-])[C@H]([O-])[C@@H]([O-])C(=O)[O-].O=C([O-])[C@H]([O-])[C@@H]([O-])C(=O)[O-].[K+].[K+].[Sb+3].[Sb+3] [TA, potassium antimony tartrate] | – | – | – | – | – | – | 100 ± 3 | IC50 [11]: 83 ± 1 µM |
| CN(C)[C@@H]1C(O)=C(C(N)=O)C(=O)[C@@]2(O)C(O)=C3C(=O)c4c(O)cccc4[C@@](C)(O)[C@H]3C[C@@H]12 [Tetracycline, tetracycline] | – | – | – | – | – | – | – | MIC, P. aeruginosa [12]: >96.7 [48] μM; MIC [1, 13]: 3.5 µM (≈ 1.56 µg/mL) |
| Bis-(3-acetoxybenzoato)triphenylantimony(V) [Complex 2] | 140.6 | 140.6 | 3.40 | 8.9 ± 0.36 | 30 ± 2.3 | 2.45 | 12.2 ± 0.91 | – |
| meglumine antimoniate | – | – | – | – | – | – | – | activity in the promastigotes model (Leishmania promastigotes): inactive |
